Measurements: PubChem BioAssay (NCI)
Where “and” joins values, the source holds several entries; their conditions need not be identical. Identical values can stand only once.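 Dose response: 5 concentrations. Exposure: 48 h. Format: 96-well plates. Endpoint: linear interpolation; highest concentration if not reached. Here, GI50 denotes the concentration required for 50% inhibition of growth. The concentration for full growth arrest is given as TGI.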

What was measured:
Test in all cases: DTP human tumour cell line panel, 48 h
DMS 273 small cell lung = test system: DMS 273 small cell lung
HL-60(TB) leukemia = test system: HL-60(TB) leukemia
UO-31 renal = test system: UO-31 renal
IGROV1 ovarian = test system: IGROV1 ovarian
LXFL 529 NSCLC = test system: LXFL 529 NSCLC
NCI-H522 lung = test system: NCI-H522 lung
SK-MEL-28 melanoma = test system: SK-MEL-28 melanoma
T-47D breast = test system: T-47D breast
NCI/ADR-RES ovarian = test system: NCI/ADR-RES ovarian
HS 578T breast = test system: HS 578T breast

Compound | TGI (DMS 273 small cell lung) | TGI (HL-60(TB) leukemia) | TGI (UO-31 renal) | TGI (IGROV1 ovarian) | TGI (LXFL 529 NSCLC) | TGI (NCI-H522 lung) | TGI (SK-MEL-28 melanoma) | GI50 (HL-60(TB) leukemia) | TGI (T-47D breast) | GI50 (UO-31 renal) | TGI (NCI/ADR-RES ovarian) | GI50 (NCI-H522 lung) | TGI (HS 578T breast) | GI50 (SK-MEL-28 melanoma) | GI50 (T-47D breast) | GI50 (NCI/ADR-RES ovarian) | GI50 (HS 578T breast) | GI50 (IGROV1 ovarian)
C=CCSC[C@H](NC(=O)COc1ccccc1)C(=O)NC(C(=O)OCc1ccc([N+](=O)[O-])cc1)=C(C)C | > 100 µM | > 100 µM | > 100 µM | > 100 µM | > 100 µM | > 100 µM | > 100 µM | – | – | – | – | – | – | – | – | – | – | –
O=c1cc(-c2cccc(F)c2)[nH]c2cc3c(cc12)OCO3 | 75 µM | – | 75 µM and > 63.4 µM | > 57 µM | 75 µM | 0.406 µM and 0.112 µM | 75 µM and > 72.4 µM | 0.201 µM | > 100 µM | 0.47 µM | 0.0497 µM | 0.172 µM | 0.181 µM | 0.359 µM | – | – | – | –
O=c1[nH]c2ccccc2cc1C(Cl)=C(Cl)Cl | > 100 µM | > 100 µM | > 100 µM | > 100 µM | > 100 µM | > 100 µM | > 100 µM | – | – | – | – | – | – | – | – | – | – | –
N#CC1(c2nc3ccccc3o2)C(=O)C(=O)N(C2C3CC4CC(C3)CC2C4)C(=O)C1=O (centres undefined) | > 100 µM | > 100 µM | > 100 µM | > 100 µM | > 100 µM | > 100 µM | > 100 µM | – | – | – | – | – | – | – | – | – | – | –
C#CCNC(=O)NC(CCCNC(=O)OCc1ccccc1)C(=O)OCc1ccccc1 (centres undefined) | > 100 µM | 59.3 µM | > 100 µM | > 100 µM | > 100 µM | 62.7 µM | > 100 µM | – | – | – | – | – | – | – | – | – | – | –
CCOc1ccc(NC(=O)CC2Sc3ccccc3NC2=O)cc1 (centres undefined) | > 100 µM | > 100 µM | > 100 µM | > 100 µM | > 100 µM | > 100 µM | > 100 µM | – | – | – | – | – | – | – | – | – | – | –
O=[N+]([O-])[C@@H]1C2C=CC(C2)[C@H]1Cl (some centres undefined) | > 100 µM | > 100 µM | > 100 µM | > 100 µM | > 100 µM | > 100 µM | > 100 µM | – | – | – | – | – | – | – | – | – | – | –
CN(C)/C(=N/C(=S)Nc1ccccc1)SCc1ccccc1 | > 100 µM | 51.4 µM | 95.8 µM | > 100 µM | > 100 µM | > 100 µM | > 100 µM | – | – | – | – | – | – | – | – | – | – | –
COC(=O)C(=O)CC(=O)CCn1ncc(Cl)c(Cl)c1=O | 30.3 µM | 9.68 µM | 34.7 µM | 33.4 µM | 24.2 µM | 7.35 µM | 21.9 µM | – | 40.2 µM | – | 44.1 µM | – | 87.5 µM | – | 21.2 µM | 18.6 µM | 27.3 µM | –
COc1cc2c(c3c1C=CCO3)C(=O)c1ccccc1C2=O | > 100 µM | 57.7 µM | > 100 µM | 78.5 µM | > 100 µM | > 100 µM | > 100 µM | – | – | – | – | – | – | – | – | – | – | –
CCCCCCCCCCCCC(=O)OC(c1cnco1)c1nc(C(O)CC(O)C(O)C(C)O)co1 (centres undefined) | > 38.6 µM | 25.4 µM | > 100 µM | > 100 µM | > 100 µM | > 25.1 µM | > 64.2 µM | 0.544 µM | – | 5.77 µM | – | 3.18 µM | – | 0.686 µM | – | – | – | 1.71 µM
